Results as given in PMC7782499, “Progerinin, an optimized progerin-lamin A binding inhibitor, ameliorates premature senescence phenotypes of Hutchinson-Gilford progeria syndrome” (Communications Biology, 2021).

What was measured:
Lmna G609G/+ mouse [1] = experiment: Grip strength test; format: in vivo; conditions: LMNA G609G/+ mice, 41-week-old, SLC-D011 for 6 weeks
Text: Fig. 4 Oral administration of SLC-D011 suppresses premature aging features. A Gross morphology of SLC-D011-treated (D011) mice at 8 weeks old. Body size of treated mouse was apparently larger than that of the untreated control (Con) mouse. B Oral administration of SLC-D011 increases body weights of Lmna^G609G/G609G mice. Compared with untreated control group, body weight of treated mouse was increased by ~35%, *p < 0.05. C Oral administration of SLC-D011 extends the life span of Lmna^G609G/G609G mouse. SLC-D011 in monoolein-based solution was treated by oral gavage (50 mg/kg, daily) from 5 weeks old. […] E Grip test of Lmna^G609G/+ mice at 41-week-old was performed after administration of SLC-D011 for 6 weeks. The test was repeated 10 times for each mouse (n > 4), **p < 0.001. Data are presented as mean ± SD. […] H Anti-aging effects of single treatment of SLC-D011 or lonafarnib were measured in HGPS patients-derived cells (AG11513, AG03199, AG11498, and AG03198, Coriell Cell Repositories). […] No unit is printed with them; the x axis reads Age (weeks). / Panel C: Ave=16.8 / Max=18 are printed beside the dashed curve of the control (Con). […]
For analysis of heart rate, mice were anesthetized with 2.5% isoflurane and monitored using LOGIQ E9 (GE Healthcare). […] Each estimate given corresponded to total reads measured ten times, excluding the minimum and the maximum from each group of animals.

Lmna G609G/+ mouse [2] = experiment: Histology analysis (Masson Trichrome, H&E); format: in vivo; conditions: Lmna G609G/+ mice, oral 50 mg/kg daily, 8 weeks
Method: Tissue specimens were fixed in 4% PFA and embedded in paraffin. Paraffin blocks were sectioned and transferred onto adhesive-coated slides. After deparaffinization and rehydration, tissue sections were stained with Masson Trichrome. Histology analysis was performed by BioLead Inc. (Seoul, Korea).
Fig. S11. Histological analysis of age- matched Lmna+/+ mice (left), untreated Lamn G609G/+ mice (middle) and progerinin- treated LmnaG609G/+ mice (right, Lmna +/+: n = 4; un tr e at e d Lmna G609G/+: n = 6; pr o ge r in -treated LmnaG609G/+: n=6). A -C. Masson Trichrome staining for fibrosis analysis was performed after 8-week treatment. A. Reduction of fibrosis in heart after administration of progeirnin in L mn a G609G transgenic mice.
The collagen-rich fibrotic area (blue) is widely distributed in untreated LmnaG609G/+ mi c e compared to Lmna+/+ and progerin- treated LmnaG609G/+ mi c e. B. Fibrosis in liver of Lmna G609G transgenic mice was reduced by progerinin. C. Unt r eat ed LmnaG609G/+ mi c e show a relatively loose connection between blood vessel walls and tissues in lungs. D -E. Hematoxylin and Eosin (H&E) staining was performed to compare skin and bones of Lmna +/+ and LmnaG609G mice. Conditions of foot pad skin (D), vertebra (E), and femur (F) of Lmna +/+ and progerin-treated LmnaG609G/+ mice were better than those of untreated Lmna G609G/+ mice. […]

## CC1(C)Oc2cc3oc(=O)ccc3cc2C[C@@H]1OC/C=C/c1ccccc1 [SLC-D011]
Lmna G609G/+ mouse [1]
  Grip strength relative to LMNA +/+ (=1): 0.9456
Lmna G609G/+ mouse [1]; LMNA +/+ = 100
  Force (%): 94.5577%
Lmna G609G/+ mouse [2]
  Fibrosis in heart and liver (Masson Trichrome): reduced
